Results: patent US20100216772A1, “Novel Phenantridine Analogues and Uses Thereof” (priority 2004, published 2010)

Columns and labels:
HaCaT keratinocytes = assay: Influence of compounds on keratinocyte proliferation (Cell Titer Viability Assay); format: cell-based; details: Homo sapiens, 25 μM test compound, 48 hrs, compared to control experiments
Experimental: 5×10^3 HaCaT keratinocytes were seeded into 60 wells of 96 well plates in 200 μl KBM/10% FCS and incubated for 24 hrs at 37° C. The test compounds were dissolved at 100 mM in DMSO. The test items were then diluted to a concentration of 25 μM in KBM/FCS with a final concentration of 1% DMSO. The test compounds, as well as the negative control for unstimulated cells (KBM/1% DMSO) and stimulated cells (KBM/FCS/1% DMSO), were added to the HaCaTs in triplicates and incubated for 48 hrs. At the end of the incubation period, the media was removed and cell numbers were determined with Cell Titer Viability Assay from Promega (#G7571/G7572) according to the manufacturer's instructions.

[1] = system: Peripheral blood mononuclear cells (PBMCs); assay: Influence of compounds on T cell proliferation ([3H]-Thymidin, anti-CD3-stimulated PBMCs); format: cell-based; details: PBMC, three different human donors
From the text: Peripheral blood mononuclear cells (PBMCs) were isolated from peripheral blood by Ficoll gradient centrifugation. […] Subsequently, the cells were washed three times with PBS and were resuspended in 96-well plates in a concentration of 2×10^5 cells/well. […] As positive and negative controls, PBMCs, stimulated with soluble anti-CD3-antibody, and non-stimulated PBMCs plus 0,1% DMSO were used. The addition of 0,1% DMSO had no effect on the proliferation rate. […] The cells were harvested using a Mikro 96 Harvester (Skatron Instruments, Lier, Norwegen). The cpm-values indicative for proliferation were determined using a Packard Matrix 9600 Counter (Canberra Packard, Schwadorf, Österreich). The experiments were made with three different human donors.
In order to determine the EC50 of test compounds, the value of anti-CD3-stimulated cells plus 0,1% DMSO was set as 100%. All other values were divided by the 100% value in order to obtain a relative percentage of inhibition. The obtained percentage values were used to determine the EC50 values using Sigma Plot.

Row | Compound | inhibition at 25 µM (HaCaT keratinocytes) [%] | EC50 [1] [µM]
1 | O=C(c1cccc(C(F)(F)F)c1)N1c2ccccc2-c2ccccc2C1c1c[nH]c2ccccc12 (centres unmarked) [Example 14, [6-(1H-Indol-3-yl)-6H-phenanthridin-5-yl]-(3-trifluoromethyl-phenyl)-methanone] | > 50 | 
2 | O=C(c1ccc(C(F)(F)F)cc1)N1c2ccccc2-c2ccccc2C1c1c[nH]c2ccccc12 (centres unmarked) [Example 7, [6-(1H-Indol-3-yl)-6H-phenanthridin-5-yl]-(4-trifluoromethyl-phenyl)-methanone] | > 50 | 
3 | O=C(c1ccccc1)N1c2ccccc2-c2ccccc2C1c1c[nH]c2ccccc12 (centres unmarked) [Example 4, [6-(1H-Indol-3-yl)-6H-phenanthridin-5-yl]-phenylmethanone] | > 50 | 
4 | O=C(C1CCC1)N1c2ccccc2-c2ccccc2C1c1c[nH]c2ccccc12 (centres unmarked) [Example 30, Cyclobutyl-[6-(1H-indol-3-yl)-6H-phenanthridin-5-yl]-methanone] | > 50 | 
5 | O=C1CN(S(=O)(=O)c2ccccc2)c2ccccc2-c2ccccc21 [Example 79, 5-Benzenesulfonyl-5,6-dihydro-dibenzo[b,d]azepin-7-one] |  | < 25
6 | COC(=O)N1c2ccccc2-c2ccccc2C1c1c[nH]c2ccccc12 (centres unmarked) [Example 36, 6-(1H-Indol-3-yl)-6H-phenanthridine-5-carboxylic acid methyl ester] | > 50 | 
7 | O=C1CN(S(=O)(=O)c2ccc(Br)cc2)c2ccccc2-c2ccccc21 [Example 82, 5-(4-Bromo-benzenesulfonyl)-5,6-dihydro-dibenzo[b,d]azepin-7-one] |  | < 25
8 | Cc1ccc(S(=O)(=O)N2c3ccccc3-c3ccccc3C2c2ccc3c(c2)OCO3)cc1 (centres unmarked) [Example 76, 6-Benzo[1,3]dioxol-5-yl-5-(toluene-4-sulfonyl)-5,6-dihydro-phenanthridine] |  | < 25
9 | O=C(c1cc(C(F)(F)F)cc(C(F)(F)F)c1)N1c2ccccc2-c2ccccc2C1c1c[nH]c2ccccc12 (centres unmarked) [Example 17, (3,5-Bis-trifluoromethyl-phenyl)-[6-(1H-indol-3-yl)-6H-phenanthridin-5-yl]-methanone] | > 50 | 
10 | CN(C)c1ccc(C(=O)N2c3ccccc3-c3ccccc3C2c2c[nH]c3ccccc23)cc1 (centres unmarked) [Example 6, (4-Dimethylamino-phenyl)-[6-(1H-indol-3-yl)-6H-phenanthridin-5-yl]-methanone] | > 50 | 
11 | O=C1CN(S(=O)(=O)c2ccc([N+](=O)[O-])cc2)c2ccccc2-c2ccccc21 [Example 83, 5-(4-Nitro-benzenesulfonyl)-5,6-dihydro-dibenzo[b,d]azepin-7-one] |  | < 25
12 | CCCC(C)C(=O)N1c2ccccc2-c2ccccc2C1c1c[nH]c2ccccc12 (centres unmarked) [Example 28, 1-[6-(1H-Indol-3-yl)-6H-phenanthridin-5-yl]-2-methyl-pentan-1-one] | > 50 | < 25
13 | Cc1ccc(S(=O)(=O)N2CC(=O)c3ccccc3-c3ccccc32)cc1 [Example 78, 5-(Toluene-4-sulfonyl)-5,6-dihydro-dibenzo[b,d]azepin-7-one] | > 50 | < 25
14 | O=C(c1ccc(Cl)nc1)N1c2ccccc2-c2ccccc2C1c1c[nH]c2ccccc12 (centres unmarked) [Example 20, (6-Chloro-pyridin-3-yl)-[6-(1H-indol-3-yl)-6H-phenanthridin-5-yl]-methanone] | > 50 | 
15 | Cc1ccc(C(=O)n2c(=O)c3ccccc3c3ccccc32)cc1 [Example 77, 5-(4-Methyl-benzoyl)-5H-phenanthridin-6-one] |  | < 25
16 | O=C(c1cccc(F)c1)N1c2ccccc2-c2ccccc2C1c1c[nH]c2ccccc12 (centres unmarked) [Example 12, (3-Fluoro-phenyl)-[6-(1H-indol-3-yl)-6H-phenanthridin-5-yl]-methanone] | > 50 | < 25
17 | O=C(CCC1CCCCC1)N1c2ccccc2-c2ccccc2C1c1c[nH]c2ccccc12 (centres unmarked) [Example 34, 3-Cyclohexyl-1-[6-(1H-indol-3-yl)-6H-phenanthridin-5-yl]-propan-1-one] | > 50 | 
18 | CC(C)C(=O)N1c2ccccc2-c2ccccc2C1c1c[nH]c2ccccc12 (centres unmarked) [Example 26, 1-[6-(1H-Indol-3-yl)-6H-phenanthridin-5-yl]-2-methyl-propan-1-one] | > 50 | < 25
19 | O=C1CN(S(=O)(=O)c2cccs2)c2ccccc2-c2ccccc21 [Example 86, 5-(Thiophene-2-sulfonyl)-5,6-dihydro-dibenzo[b,d]azepin-7-one] |  | < 25
20 | CC(=O)N1c2ccccc2-c2ccccc2C1c1c[nH]c2ccccc12 (centres unmarked) [Example 3, 1-[6-(1H-Indol-3-yl)-6H-phenanthridin-5-yl]-ethanone] | > 50 | < 25
21 | CC(=O)Nc1ccc(S(=O)(=O)N2CC(=O)c3ccccc3-c3ccccc32)cc1 [Example 81, N-[4-(7-Oxo-6,7-dihydro-dibenzo[b,d]azepine-5-sulfonyl)-phenyl]-acetamide] |  | < 25
22 | O=C(c1cccnc1Cl)N1c2ccccc2-c2ccccc2C1c1c[nH]c2ccccc12 (centres unmarked) [Example 21, (2-Chloro-pyridin-3-yl)-[6-(1H-indol-3-yl)-6H-phenanthridin-5-yl]-methanone] | > 50 | < 25
23 | O=C(CCc1ccccc1)N1c2ccccc2-c2ccccc2C1c1c[nH]c2ccccc12 (centres unmarked) [Example 35, 1-[6-(1H-Indol-3-yl)-6H-phenanthridin-5-yl]-3-phenyl-propan-1-one] | > 50 | 
24 | O=C(c1ccco1)N1c2ccccc2-c2ccccc2C1c1c[nH]c2ccccc12 (centres unmarked) [Example 23, Furan-2-yl-[6-(1H-indol-3-yl)-6H-phenanthridin-5-yl]-methanone] | > 50 | < 25
25 | O=C1CN(S(=O)(=O)c2cc(C(F)(F)F)cc(C(F)(F)F)c2)c2ccccc2-c2ccccc21 [Example 84, 5-(3,5-Bis-trifluoromethyl-benzenesulfonyl)-5,6-dihydro-dibenzo[b,d]azepin-7-one] |  | < 25
